Test results published in paper PMC8622706, “Synthesis, Molecular Docking, and Antimalarial Activity of Hybrid 4-Aminoquinoline-pyrano[2,3-c]pyrazole Derivatives” (Pharmaceuticals, 2021).
Like-named read-outs stand apart in the source and are kept apart here.

What was measured:
[1] = tested on: P. falciparum 3D7 (chloroquine-sensitive); assay: pLDH antimalarial assay, P. falciparum 3D7 culture; format: cell-based, Plasmodium falciparum; conditions: for EC50: Plasmodium falciparum, read-out: P. falciparum 3D7 (CQ-Sensitive) EC50 ± S.D.; for Selectivity Index (SI), (CC50 MTT/EC50 pLDH), CQ-Sensitive: Vero CC50 / 3D7 EC50
Description: (§1) The parasites were cultivated by the Trager and Jensen methods to determine the antimalarial activity of the hybrid 4-aminoquinoline-pyrano[2,3-c]pyrazole derivatives against chloroquine-sensitive P. falciparum 3D7 and chloroquine-resistant P. falciparum K1. […] The parasites were maintained in continuous culture in fresh group O (Rhesus positive) human erythrocytes suspended in 2% hematocrit in RPMI 1640 containing […] Albumax I, glucose (3 g/L), hypoxanthine (45 μg/L), and gentamicin (50 μg/L). Plasmodium lactate dehydrogenase (pLDH) assays were performed as described by Makler et al., with slight modification. Parasites were plated in asynchronized phase at 2% hematocrit and 2% parasitemia in 100 μL of the test compounds. The compounds were dissolved in DMSO and further diluted in a culture medium. Chloroquine diphosphate and artemisinin were used as antimalarial reference drugs. Unparasitized erythrocytes without the test compounds were the blanks, while parasitized erythrocytes without test compounds were the control for the assay. Plates were placed in an incubator supplied with 5% CO2 and incubated at 37 °C for 48 h. After incubation, plates were subjected to three 30 min of freeze-thaw cycles to lyse and re-suspend the erythrocytes in the culture. Subsequently, Malstat reagent (100 μL) and a nitro blue tetrazolium salt/phenazine ethosulfate (NBT/PES) solution (25 μL) were added to each well of a new 96-well microtiter plate. The culture (25 μL) was then added to the corresponding well of the reagent plate to initiate the lactate dehydrogenase reaction. Color development of the plate was monitored calorimetrically at 650 nm after an hour of incubation in the dark.

MTT cytotoxicity assay = format: cell-based; conditions: African green monkey, Vero cells (ATCC CCL-81), read-out: Vero Cell (Normal Cell) CC50 ± S.D.
Description: The cytotoxicity of the hybrid 4-aminoquinoline-pyrano[2,3-c]pyrazole derivatives was measured using the MTT assay described by Mossmann. […] The cell suspension without test compounds served as the positive control for cell growth. […] The medium was then aspirated, and formazan crystals were solubilized by adding 100 μL of DMSO per well for 10 min at 37 °C in a CO2 incubator. […] Three independent tests were conducted to determine the cytotoxicity of each test compound.

[2] = tested on: P. falciparum K1 (chloroquine-resistant); assay: pLDH antimalarial assay, P. falciparum K1 culture; format: cell-based, Plasmodium falciparum; conditions: for Resistance Index (RI), (EC50 Resistance/EC50 Sensitive): K1/3D7; for EC50: Plasmodium falciparum, read-out: P. falciparum K1 (CQ-Resistant) EC50 ± S.D.; for Selectivity Index (SI), (CC50 MTT/EC50 pLDH), CQ-Resistant: Vero CC50 / K1 EC50
Description: as §1

P. berghei = tested on: P. berghei; design: method as in PMID 30737133; conditions: P. berghei-infected mice, 5th day after infection; cited from earlier work
P. falciparum = tested on: P. falciparum; design: method as in doi:10.1039/C6RA01349J; conditions: comparator value; read-out: antiplasmodial activity against P. falciparum; cited from earlier work
[3] = 3D7, chloroquine-sensitive strain, pLDH assay, 48 h
[4] = K1, chloroquine-resistant strain, pLDH assay, 48 h

Nc1ccnc2ccccc12 [4-aminoquinoline]
EC50 [1, 3]: 9290 ± 120 nM | Selectivity Index (SI), (CC50 MTT/EC50 pLDH), CQ-Sensitive [1]: 12.25 | CC50 at 48 h (MTT cytotoxicity assay): 114000 ± 1630 nM | Resistance Index (RI), (EC50 Resistance/EC50 Sensitive) [2]: 15.11 | EC50 [2, 4]: 140000 ± 27600 nM | Selectivity Index (SI), (CC50 MTT/EC50 pLDH), CQ-Resistant [2]: 0.81

C[C@@H]1CC[C@H]2[C@@H](C)C(=O)O[C@@H]3O[C@@]4(C)CC[C@@H]1[C@]32OO4 [ART, artemisinin, reference compound]
EC50 [1, 3]: 0.1 nM | Selectivity Index (SI), (CC50 MTT/EC50 pLDH), CQ-Sensitive [1]: >2000 | Resistance Index (RI), (EC50 Resistance/EC50 Sensitive) [2]: 1.7 | EC50 [2, 4]: 0.17 nM | Selectivity Index (SI), (CC50 MTT/EC50 pLDH), CQ-Resistant [2]: >2000

CCN(CC)CCCC(C)Nc1ccnc2cc(Cl)ccc12 (stereo not drawn) [CQ, chloroquine, reference compound]
EC50 ([1]; 3D7, 48 h): 2 nM | EC50 ([2]; K1, 48 h): 330 nM

CCOC(=O)c1nn(CCNc2ccnc3cc(Cl)ccc23)c2c1C(c1ccccc1)C(C#N)=C(N)O2 (stereo not drawn) [Compound 4a, Ethyl 6-Amino-1-(2-((7-chloroquinolin-4-yl)amino)ethyl)-5-cyano-4-phenyl-1,4-dihydropyrano[2,3-c]pyrazole-3-carboxylate]
EC50 [1, 3]: 190 ± 70 nM | Selectivity Index (SI), (CC50 MTT/EC50 pLDH), CQ-Sensitive [1]: 539.7 | Resistance Index (RI), (EC50 Resistance/EC50 Sensitive) [2]: 1.32 | EC50 [2, 4]: 250 ± 30 nM | Selectivity Index (SI), (CC50 MTT/EC50 pLDH), CQ-Resistant [2]: 410.16

CCOC(=O)c1nn(CCNc2ccnc3cc(Cl)ccc23)c2c1C(c1ccc(CC)cc1)C(C#N)=C(N)O2 (stereo not drawn) [Compound 4b, Ethyl 6-Amino-1-(2-((7-chloroquinolin-4-yl)amino)ethyl)-5-cyano-4-(4-ethylphenyl)-1,4-dihydropyrano[2,3-c]pyrazole-3-carboxylate]
EC50 [1, 3]: 13 ± 0.2 nM | Selectivity Index (SI), (CC50 MTT/EC50 pLDH), CQ-Sensitive [1]: 1353.9 | Resistance Index (RI), (EC50 Resistance/EC50 Sensitive) [2]: 1.53 | EC50 [2, 4]: 20 ± 10 nM | Selectivity Index (SI), (CC50 MTT/EC50 pLDH), CQ-Resistant [2]: 880

CCOC(=O)c1nn(CCNc2ccnc3cc(Cl)ccc23)c2c1C(c1ccco1)C(C#N)=C(N)O2 (stereo not drawn) [Compound 4c, Ethyl 6-Amino-1-(2-((7-chloroquinolyn-4-yl)amino)ethyl)-5-cyano-4-(furan-2-yl)-1,4-dihydropyrano[2,3-c]pyrazole-3-carboxylate]
EC50 [1, 3]: 113 ± 2 nM | Selectivity Index (SI), (CC50 MTT/EC50 pLDH), CQ-Sensitive [1]: 747.9 | Resistance Index (RI), (EC50 Resistance/EC50 Sensitive) [2]: 14.24 | EC50 [2, 4]: 1610 ± 150 nM | Selectivity Index (SI), (CC50 MTT/EC50 pLDH), CQ-Resistant [2]: 52.49 | Antimalarial activity class against K1 ([2]; class by EC50 threshold): active

CCOC(=O)c1nn(CCNc2ccnc3cc(Cl)ccc23)c2c1C(C(C)C)C(C#N)=C(N)O2 (stereo not drawn) [Compound 4d, Ethyl 6-Amino-1-(2-((7-chloroquinolyn-4-yl)amino)ethyl)-5-cyano-4-isopropyl-1,4-dihydropyrano[2,3-c]pyrazole-3-carboxylate]
EC50 [1, 3]: 3390 ± 1890 nM | Selectivity Index (SI), (CC50 MTT/EC50 pLDH), CQ-Sensitive [1]: 25.4 | Antimalarial activity class against 3D7 ([1]; class by EC50 threshold): active | Resistance Index (RI), (EC50 Resistance/EC50 Sensitive) [2]: 0.09 | EC50 [2, 4]: 300 ± 10 nM | Selectivity Index (SI), (CC50 MTT/EC50 pLDH), CQ-Resistant [2]: 287

CCOC(=O)c1nn(CCNc2ccnc3cc(Cl)ccc23)c2c1C(c1ccc(O)cc1)C(C#N)=C(N)O2 (stereo not drawn) [Compound 4e, Ethyl 6-Amino-1-(2-((7-chloroquinolyn-4-yl)amino)ethyl)-5-cyano-4-(4-hydroxyphenyl)-1,4-dihydropyrano[2,3-c]pyrazole-3-carboxylate]
EC50 [1, 3]: 26 ± 9 nM | Selectivity Index (SI), (CC50 MTT/EC50 pLDH), CQ-Sensitive [1]: 355.3 | Resistance Index (RI), (EC50 Resistance/EC50 Sensitive) [2]: 273.84 | EC50 [2, 4]: 7120 ± 3720 nM | Selectivity Index (SI), (CC50 MTT/EC50 pLDH), CQ-Resistant [2]: 1.3

Cc1nnc(Nc2cc(C(F)(F)F)nc3c(C(F)(F)F)cccc23)[nH]1 [VIII, N-(5-methyl-4H-1,2,4-triazol-3-yl)-2,8-bis(trifluoromethyl)quinolin-4-amine]
reduction of parasitemia (P. berghei): 66%

C=C[C@H]1C[N@@]2CC[C@H]1C[C@H]2[C@H](O)c1ccnc2ccc(OC)cc12 [quinine]
IC50 (P. falciparum): 826 nM
